The record followed here is US20140011682A1, “USE OF OPEN-CHAIN CARBOXYLIC ACIDS, CARBONIC ESTERS, CARBOXAMIDES AND CARBONITRILES OF ARYL, HETEROARYL AND BENZYLSULFONAMIDE OR THE SALTS THEREOF FOR IMPROVING THE STRESS TOLERANCE IN PLANTS” (BAYER INTELLECTUAL PROPERTY GMBH, priority 2010, published 2014).

What all share (type): in vivo
What all share (settings): mean of three results

The test system of one assay is BRSNS=Brassica napus. Nature of the assay: Drought stress test on crop plants in the greenhouse, spray application, Brassica napus. As for the experimental part: (§1) Seeds of monocotyledonous and dicotyledonous crop plants were placed in sandy loam in wood-fiber pots, covered with soil and cultivated in a greenhouse under good growth conditions. The test plants were treated at the early leaf stage (BBCH10 BBCH13). To ensure uniform water supply before commencement of stress, the potted plants were supplied with the maximum amount of water immediately beforehand by dam irrigation and, after application, transferred in plastic inserts in order to prevent subsequent, excessively rapid drying. The inventive compounds, formulated in the form of wettable powders (WP), wettable granules (WG), suspension concentrates (SC) or emulsion concentrates (EC), were sprayed onto the green parts of the plants as an aqueous suspension at an equivalent water application rate of 600 l/ha with addition of 0.2% wetting agent (agrotin). Substance application is followed immediately by stress treatment of the plants (cold or drought stress). For cold stress treatment, the plants were kept under the following controlled conditions:
(§2) Drought stress was induced by gradual drying out under the following conditions:
(§3) “day”: 14 hours with illumination at 26° C.
(§4) “night”: 10 hours without illumination at 18° C.
(§5) The duration of the respective stress phases was guided mainly by the state of the untreated, stressed control plants and thus varied from crop to crop. It was ended (by re-irrigating or transferring it to a greenhouse with good growth conditions) as soon as irreversible damage was observed on the untreated, stressed control plants. In the case of dicotyledonous crops, for example oilseed rape and soybeans, the duration of the drought stress phase varied between 3 and 5 days, in the case of monocotyledonous crops, for example wheat, barley or corn, between 6 and 10 days. The duration of the cold stress phase varied between 12 and 14 days. The end of the stress phase was followed by an approx. 5-7-day recovery phase, during which the plants were once again kept under good growth conditions in a greenhouse. In order to rule out any influence of the effects observed by any fungicidal action of the test compounds, it is additionally ensured that the tests proceed without fungal infection and without infection pressure.
(§6) After the recovery phase had ended, the intensities of damage were rated in visual comparison to untreated, unstressed controls of the same age (in the case of drought stress) or the same growth stage (in the case of cold stress). The intensity of damage was first assessed as a percentage (100%=plants have died, 0%=like control plants). These values were then used to calculate the efficacy of the test compounds (=percentage reduction in the intensity of damage as a result of substance application) by the following formula: […]
(§7) DVus: damage value of the untreated, stressed control
(§8) DVts: damage value of the plants treated with test compound
(§9) The tables below list mean values in each case from three results of the same test.

The subject of the next assay is ZEAMX=Zea mays. In words: Drought stress test on crop plants in the greenhouse, spray application, Zea mays. As for the experimental part:
as §1, §2, §3, §4, §5, §6, §7, §8, §9

In another assay the test system is TRZAS=Triticum aestivum. In words: Drought stress test on crop plants in the greenhouse, spray application, Triticum aestivum. As for the experimental part: as §1, §2, §3, §4, §5, §6, §7, §8, §9

In the case of `COC(=O)C(Cc1ccc(F)cc1)NS(=O)(=O)c1ccc(OC)cc1` (centres unmarked) [I.37-90], the “EF (BRSNS): Efficacy = percentage reduction in the intensity of damage” value in the assay on BRSNS=Brassica napus (dosage 250 g/ha) was greater than 5%. Besides, the “EF (ZEAMX): Efficacy = percentage reduction in the intensity of damage” value in the assay with ZEAMX=Zea mays (dosage 25 g/ha) is greater than 5%. Turning to `COC(=O)C(COC(C)(C)C)NS(=O)(=O)c1ccc(OC)cc1` (centres unmarked) [I.37-91], the “EF (BRSNS): Efficacy = percentage reduction in the intensity of damage” value with BRSNS=Brassica napus (dosage 250 g/ha) was greater than 5%. Moreover, the “EF (ZEAMX): Efficacy = percentage reduction in the intensity of damage” value with ZEAMX=Zea mays (dosage 25 g/ha) is on record as greater than 5%. `COC(=O)C(Cc1ccc(F)cc1)NS(=O)(=O)c1ccc(Br)c2ccccc12` (centres unmarked) [I.3-90]: the “EF (BRSNS): Efficacy = percentage reduction in the intensity of damage” value with BRSNS=Brassica napus (dosage 25 g/ha) is listed as greater than 5%. Moreover, the “EF (TRZAS) Efficacy” value in the assay with TRZAS=Triticum aestivum (dosage 25 g/ha) is listed as greater than 5%.

Take `COC(=O)C(Cc1cccnc1)NS(=O)(=O)c1ccc(OC)cc1` (centres unmarked) [I.37-82]: the “EF (BRSNS): Efficacy = percentage reduction in the intensity of damage” value in the assay with BRSNS=Brassica napus (dosage 250 g/ha) is reported as greater than 5%. Moreover, the “EF (TRZAS) Efficacy” value in the assay with TRZAS=Triticum aestivum (dosage 25 g/ha) was greater than 5%. In the case of `COC(=O)CC(NS(=O)(=O)c1ccc(Br)cc1)c1ccc(Br)cc1` (centres unmarked) [I.1-35], the “EF (BRSNS): Efficacy = percentage reduction in the intensity of damage” value in the assay with BRSNS=Brassica napus (dosage 2.5 g/ha) is given as greater than 5%. Further, the “EF (TRZAS) Efficacy” value in the assay on TRZAS=Triticum aestivum (dosage 25 g/ha) is given as greater than 5%. Regarding `CCOC(=O)CC(NS(=O)(=O)c1ccc(Br)c2ccccc12)C(C)C` (centres unmarked) [I.3-28], the “EF (BRSNS): Efficacy = percentage reduction in the intensity of damage” value in the assay with BRSNS=Brassica napus (dosage 250 g/ha) is greater than 5%. Besides, in the assay on TRZAS=Triticum aestivum (dosage 250 g/ha), the “EF (TRZAS) Efficacy” value was greater than 5%.

`COC(=O)CC(NS(=O)(=O)c1ccc(Br)cc1)C(=O)OC` (centres unmarked) [I.1-63]: the “EF (BRSNS): Efficacy = percentage reduction in the intensity of damage” value with BRSNS=Brassica napus (dosage 250 g/ha) is given as greater than 5%. For the same compound, in the assay on TRZAS=Triticum aestivum (dosage 25 g/ha), the “EF (TRZAS) Efficacy” value is listed as greater than 5%. In the case of `CCOC(=O)CC(NS(=O)(=O)c1c(C)cccc1C)C(C)C` (centres unmarked) [I.52-28], in the assay on BRSNS=Brassica napus (dosage 25 g/ha), the “EF (BRSNS): Efficacy = percentage reduction in the intensity of damage” value was greater than 5%. For the compound `CCOC(=O)CC(NS(=O)(=O)c1ccc(Br)cc1)C(C)C` (centres unmarked) [I.1-28], the “EF (BRSNS): Efficacy = percentage reduction in the intensity of damage” value in the assay with BRSNS=Brassica napus (dosage 2.5 g/ha) is listed as greater than 5%.

Consider `CCOC(=O)CC(NS(=O)(=O)c1ccc(Br)cc1)C(F)(F)F` (centres unmarked) [I.1-103], for which the “EF (BRSNS): Efficacy = percentage reduction in the intensity of damage” value in the assay on BRSNS=Brassica napus (dosage 250 g/ha) was greater than 5%. Moreover, the “EF (TRZAS) Efficacy” value with TRZAS=Triticum aestivum (dosage 25 g/ha) is on record as greater than 5%. Turning to `COC(=O)C(Cc1cn(C)cn1)NS(=O)(=O)c1cccc2ccccc12` (centres unmarked) [I.2-74], the “EF (BRSNS): Efficacy = percentage reduction in the intensity of damage” value with BRSNS=Brassica napus (dosage 250 g/ha) is given as greater than 5%. The “EF (TRZAS) Efficacy” value in the assay with TRZAS=Triticum aestivum (dosage 25 g/ha) is on record as greater than 5%. `COC(=O)C(NS(=O)(=O)c1ccc(Br)c2ccccc12)C(C)C` (centres unmarked) [I.3-75]: the “EF (BRSNS): Efficacy = percentage reduction in the intensity of damage” value in the assay on BRSNS=Brassica napus (dosage 250 g/ha) is greater than 5%. Also, the “EF (TRZAS) Efficacy” value in the assay with TRZAS=Triticum aestivum (dosage 25 g/ha) is listed as greater than 5%. As for `COC(=O)C(Cc1c[nH]cn1)NS(=O)(=O)c1ccc(Br)c2ccccc12` (centres unmarked) [I.3-106], the “EF (BRSNS): Efficacy = percentage reduction in the intensity of damage” value in the assay with BRSNS=Brassica napus (dosage 25 g/ha) is greater than 5%. For the same compound, in the assay on TRZAS=Triticum aestivum (dosage 250 g/ha), the “EF (TRZAS) Efficacy” value is given as greater than 5%. For the compound `COC(=O)C(NS(=O)(=O)c1ccc(OC)cc1)C(C)C` (centres unmarked) [I.37-75], the “EF (BRSNS): Efficacy = percentage reduction in the intensity of damage” value with BRSNS=Brassica napus (dosage 250 g/ha) is listed as greater than 5%. The same measure, in the same setting: in the case of `COC(=O)C(CC(C)C)NS(=O)(=O)c1ccc(Br)cc1` (centres unmarked) [I.1-77] it was greater than 5%. `COC(=O)C(NS(=O)(=O)c1cccc2ccccc12)C(C)C` (centres unmarked) [I.2-75]: in the assay with BRSNS=Brassica napus (dosage 25 g/ha), the “EF (BRSNS): Efficacy = percentage reduction in the intensity of damage” value is given as greater than 5%. For the same compound, in the assay on ZEAMX=Zea mays (dosage 250 g/ha), the “EF (ZEAMX): Efficacy = percentage reduction in the intensity of damage” value was greater than 5%. In addition, the “EF (TRZAS) Efficacy” value in the assay with TRZAS=Triticum aestivum (dosage 25 g/ha) was greater than 5%.

`CCOC(=O)CC(NS(=O)(=O)c1ccc(Br)cc1)c1ccccc1Cl` (centres unmarked) [I.1-33]: the “EF (BRSNS): Efficacy = percentage reduction in the intensity of damage” value in the assay with BRSNS=Brassica napus (dosage 25 g/ha) is recorded as greater than 5%. In addition, the “EF (TRZAS) Efficacy” value in the assay on TRZAS=Triticum aestivum (dosage 250 g/ha) is greater than 5%. With `CCOC(=O)CC(NS(=O)(=O)c1ccc(Br)c2ccccc12)C(F)(F)F` (centres unmarked) [I.3-103], the “EF (BRSNS): Efficacy = percentage reduction in the intensity of damage” value with BRSNS=Brassica napus (dosage 25 g/ha) is on record as greater than 5%. Further, the “EF (TRZAS) Efficacy” value in the assay with TRZAS=Triticum aestivum (dosage 25 g/ha) was greater than 5%. For `CC(C)(C)OC(=O)CCCNS(=O)(=O)c1ccc(Br)c2ccccc12` [I.3-70], the “EF (BRSNS): Efficacy = percentage reduction in the intensity of damage” value in the assay with BRSNS=Brassica napus (dosage 2.5 g/ha) was greater than 5%.

For `CCOC(=O)CC(NS(=O)(=O)c1ccc(OC)cc1)C(C)C` (centres unmarked) [I.37-28], the “EF (BRSNS): Efficacy = percentage reduction in the intensity of damage” value with BRSNS=Brassica napus (dosage 250 g/ha) is listed as greater than 5%. The “EF (TRZAS) Efficacy” value in the assay on TRZAS=Triticum aestivum (dosage 250 g/ha) is listed as greater than 5%.

With `CC(C)CC(C)(C#N)NS(=O)(=O)c1ccc(Br)cc1` (centres unmarked) [I.1-14], the “EF (BRSNS): Efficacy = percentage reduction in the intensity of damage” value in the assay with BRSNS=Brassica napus (dosage 25 g/ha) was greater than 5%. For the same compound, in the assay on ZEAMX=Zea mays (dosage 250 g/ha), the “EF (ZEAMX): Efficacy = percentage reduction in the intensity of damage” value is given as greater than 5%. Regarding `CCCC(NS(=O)(=O)c1ccc(OC)cc1)C(=O)OC` (centres unmarked) [I.37-73], in the assay on BRSNS=Brassica napus (dosage 25 g/ha), the “EF (BRSNS): Efficacy = percentage reduction in the intensity of damage” value is reported as greater than 5%. Besides, the “EF (TRZAS) Efficacy” value with TRZAS=Triticum aestivum (dosage 250 g/ha) is given as greater than 5%.

`CCOC(=O)CC(CC(C)C)NS(=O)(=O)c1cccc2ccccc12` (centres unmarked) [I.2-62]: in the assay with ZEAMX=Zea mays (dosage 25 g/ha), the “EF (ZEAMX): Efficacy = percentage reduction in the intensity of damage” value was greater than 5%. Moreover, the “EF (TRZAS) Efficacy” value in the assay with TRZAS=Triticum aestivum (dosage 250 g/ha) was greater than 5%. In the case of `COC(=O)CC(NS(=O)(=O)c1ccc(Br)cc1)C(C)C` (centres unmarked) [I.1-29, Methyl 3-{[(4-bromophenyl)sulfonyl]amino}-4-methylpentanoate], the “EF (BRSNS): Efficacy = percentage reduction in the intensity of damage” value in the assay with BRSNS=Brassica napus (dosage 250 g/ha) was greater than 5%. The “EF (ZEAMX): Efficacy = percentage reduction in the intensity of damage” value with ZEAMX=Zea mays (dosage 250 g/ha) is listed as greater than 5%. As for `COC(=O)C(CC(C)C)NS(=O)(=O)c1cccc2ccccc12` (centres unmarked) [I.2-77], the “EF (BRSNS): Efficacy = percentage reduction in the intensity of damage” value in the assay on BRSNS=Brassica napus (dosage 2.5 g/ha) is listed as greater than 5%. Also, in the assay on TRZAS=Triticum aestivum (dosage 250 g/ha), the “EF (TRZAS) Efficacy” value was greater than 5%. With `C#CCC(NS(=O)(=O)c1ccc(OC)cc1)C(=O)OC` (centres unmarked) [I.37-86], in the assay with ZEAMX=Zea mays (dosage 250 g/ha), the “EF (ZEAMX): Efficacy = percentage reduction in the intensity of damage” value is listed as greater than 5%. Also, the “EF (TRZAS) Efficacy” value in the assay with TRZAS=Triticum aestivum (dosage 250 g/ha) is on record as greater than 5%.

`C#CCC(NS(=O)(=O)c1cccc2ccccc12)C(=O)OC` (centres unmarked) [I.2-86]: the “EF (BRSNS): Efficacy = percentage reduction in the intensity of damage” value with BRSNS=Brassica napus (dosage 250 g/ha) is reported as greater than 5%. Besides, in the assay with TRZAS=Triticum aestivum (dosage 250 g/ha), the “EF (TRZAS) Efficacy” value was greater than 5%.
